Experiments:
[1] = system: wild-type MATa strain ATCC 28383; assay: Growth-inhibitory effect on yeast, cell viability by plating (CFU); type: cell-based, S. cerevisiae; conditions: 0.5 g/L, 5 h of exposure, plated on YPD
Description: A 20 mL seed culture of wild-type MATa strain ATCC 28383 was grown in SD-THUL medium (0.67 Bacto yeast nitrogen base without amino acids, 2% glucose, 0.14% yeast synthetic drop-out medium without uracil, tryptophan, histidine and leucine). The culture was grown for 24 h, and 2.5 mL of the culture was used to inoculate 7 equal batches of 50 mL fermentation medium (2% (NH4)2SO4, 2% KH2PO4, 0.1% NaCl, 0.6% MgSO4.7H2O, 0.4% yeast extract, 1 mL mineral solution [FeSO4.7H2O 0.028%, ZnSO4.7H2O 0.029%, CuSO4.5H2O 0.008%, Na2MoO4.2H2O 0.024%, CoCl2.6H2O 0.024%, MnSO4.H2O 0.017%, HCl 1 mL], 0.5 mL 50% glucose, 1.5 mL vitamin solution [biotin 0.001%, Ca-pantothenate 0.012%, inositol 0.06%, pyridoxine-HCl 0.012%, thiamine-HCl 0.012%], and 0.5 mL 10% CaCl2) in 250 mL baffled Ehrlenmeyer flasks.
In 6 flasks, nootkatol or glycosylated nootkatol (nootkatol+1 glucose) were added in final concentrations of 0.06, 0.125, and 0.5 g/L. The 7th flask was used as a control and was not treated with nootkatol or glycosylated nootkatol. The cultures were grown at 28° C. and 170 rpm, and the cell viability was measured after 5 h of exposure by plating 100 μL of 1/1000 dilution of cell culture on yeast extract peptone dextrose (YPD) plates.

[2] = In vitro de-glycosylation of nootkatol-glucoside by glycosidase enzymes, LC-MS; type: biochemical; conditions: water control, Delft fermentation medium, 2 hours
Description: Identical samples of 990 μl of Delft fermentation medium further comprising 0.1 mg nootkatol-glucoside (Nootkatol-Glc) were each treated with 10 μl of 12 exemplary glycosidase enzymes (listed in Table 3 below) (thus, 1% v/v) for 2 hours. After 2 hours, samples of the reaction mixture were taken, and the de-glycosylation reaction was terminated by addition of an equal volume of ethanol followed by freezing.
The resulting digested samples were analyzed by LC-MS on a BEH C18-column (100 mm×2.1 mm, 5 μm). Mobile phase A was 0.1% formic acid in water, and mobile phase B was 0.1% formic acid in acetonitrile. B concentration gradient was 0-1 min, 1%; 1-5 min, 100%; 5-7 min, 100%; 7-7.1 min, 1%; 7.1-9 min, 1%. The injection volume was 5 μL. Mass spectrometry analysis was carried out on an SQD1 detector (3.4 KV capillary, 37 V cone, 3 V extractor, 0.1 V RF lens) at a source temperature of 150° C. and desolvation temperature of 250° C., with full scan ESI+/−(100-900 amu scan range) and selective ion recording.

C=C(C)C1CCC2=CC(OC3OC(CO)C(O)C(O)C3O)CC(C)C2(C)C1 (centres unmarked) [glycosylated nootkatol]
toxicity (cell viability) [1]: no toxicity was observed
spontaneous de-glycosylation [2]: weak spontaneous de-glycosylation
